Experimental data published in patent US20150181885A1, “METHOD FOR CONTROLLING FUNGAL DISEASES IN MUSHROOM PRODUCTION” (priority 2012, published 2015).

Tests used:
Verticillium fungicola = assay: In vitro antifungal activity assay in 96-well microtiter plates against Verticillium fungicola; type: cell-based; details: 3 days incubation at 25° C.
Method: The following compositions are tested: […] Subsequently, 100 μl of a Verticillium fungicola suspension prepared in PCB medium is used to inoculate each well with 5.0×10^3 spores/ml. […] After incubation of the microtiter plates for 3 days at 25° C., the in vitro antifungal activity (%) of the individual active ingredients was assessed by calculating the reduction in mould growth observed in the presence of the active ingredient in comparison to the mould growth observed in the absence of the active ingredient. The expected antifungal activity (E in %) of the active ingredient combination was calculated according to the Colby equation (Colby, 1967): […] wherein X and Y are the observed antifungal activities (in %) of the individual active ingredients X and Y, respectively.

Trichoderma harzianum = assay: In vitro antifungal activity assay in 96-well microtiter plates against Trichoderma harzianum; type: cell-based
Method: Subsequently, 100 μl of a Verticillium fungicola suspension prepared in PCB medium is used to inoculate each well with 5.0×10^3 spores/ml.
After incubation of the microtiter plates for 3 days at 25° C., the in vitro antifungal activity (%) of the individual active ingredients was assessed by calculating the reduction in mould growth observed in the presence of the active ingredient in comparison to the mould growth observed in the absence of the active ingredient. The expected antifungal activity (E in %) of the active ingredient combination was calculated according to the Colby equation (Colby, 1967): […]
wherein X and Y are the observed antifungal activities (in %) of the individual active ingredients X and Y, respectively. If the observed antifungal activity (O in %) of the combination exceeds the expected antifungal activity (E in %) of the combination and the resulting synergy factor O/E is thus >1.0, the combined application of the active ingredients leads to a synergistic antifungal effect.
The experiment was conducted as described in Example 1, except for the fact that the following compositions were tested: • Control (no active ingredient) • 1.25 ppm Natamycin • 5, 10 or 15 ppm thiophanate-methyl • 1.25 ppm Natamycin+5 ppm thiophanate-methyl • 1.25 ppm Natamycin+10 ppm thiophanate-methyl • 1.25 ppm Natamycin+15 ppm thiophanate-methyl
Furthermore, Trichoderma harzianum was used for inoculation. After 3 and 5 days of incubation at 25° C., the antifungal activity (in %) of the individual and combined active ingredients was determined according to the method described in Example 1.

For COC(=O)NC(=S)Nc1ccccc1NC(=S)NC(=O)OC [Thiophanate-methyl, dimethyl 4,4′-(o-phenylene)bis(3-thioallophanate)], which “Observed antifungal activity O (%)” value (Verticillium fungicola; Thiophanate-methyl 15 ppm) is on record?
The value was 50%.

And the “Observed antifungal activity O (%)” value (Verticillium fungicola; Thiophanate-methyl 20 ppm)?
The value was 50%.

And the “Observed antifungal activity O (%)” value (Trichoderma harzianum; Thiophanate-methyl 5 ppm, 3 days incubation at 25° C.)?
Its value is 0%.

And the “Observed antifungal activity O (%)” value (Trichoderma harzianum; Thiophanate-methyl 10 ppm, 5 days incubation at 25° C.)?
Its value is 0%.

What about the “Observed antifungal activity O (%)” value (Trichoderma harzianum; Thiophanate-methyl 15 ppm, 5 days incubation at 25° C.) of the same compound?
Its value is 0%.

How did the “Observed antifungal activity O (%)” value (Verticillium fungicola; Natamycin 2.5 ppm) turn out when C[C@@H]1C/C=C/C=C/C=C/C=C/[C@H](O[C@@H]2O[C@H](C)[C@@H](O)[C@H](N)[C@@H]2O)C[C@@H]2O[C@](O)(C[C@@H](O)C[C@H]3O[C@@H]3/C=C/C(=O)O1)C[C@H](O)[C@H]2C(=O)O [Natamycin, natamycin] was run?
The value was 0%.
